# According to patent US20250332173A1, “COMPOUNDS AND METHODS FOR MODULATING NUCLEIC ACID SPLICING” (REMIX THERAPEUTICS INC., priority 2021, published 2025):
# What was measured:
# Type in all cases: cell-based, human
# Target C [1] = assay: RT-qPCR splicing assay panel, Target C canonical junction (CJ) mRNA; settings: Homo sapiens; Table 5 panel; canonical junction qPCR; compound concentration having 50% response in CJ decrease; read-out: Target C IC50 (decrease in CJ mRNA levels)
# How it was run: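 Canonical-junction transcript levels in compound-treated A673 or K562 cells (24 h, up to 10 uM final) were determined from lysates by RT-qPCR with housekeeping-gene normalization.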
# MYB = assay: HiBiT protein abundance assay, MYB HiBiT K562 cell line; settings: HiBiT K562 cell line, 24 hours, top dose 10 μM; read-out: Effect on protein abundance, MYB (IC50 category)
# How it was run: (§1)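 K562 knock-in lines with endogenous HiBiT-tagged target, 10,000 cells/well in IMDM + FBS, treated 24 h at 37° C with 10-point 3-fold dilutions (top 10 μM final; DMSO ≤0.25%). Lytic Nano-Glo HiBiT luminescence normalized to untagged K562 baseline and DMSO controls; IC50 = concentration giving 50% abundance via four-parameter fit.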
# HTT = assay: HiBiT protein abundance assay, HTT HiBiT K562 cell line; settings: HiBiT K562 cell line, 24 hours, top dose 10 μM; read-out: Effect on protein abundance, HTT (IC50 category)
# How it was run: as §1
# Target C [2] = assay: HiBiT protein abundance assay, Target C (Promega Nano-Glo HiBiT Lytic Detection System, knock-in K562 cell line); settings: Homo sapiens, K562, 24 h, HiBiT K562 cell line, 24 hours, top dose 10 μM; read-out: Effect on protein abundance, Target C (IC50 category)
# How it was run: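 Knock-in K562 cells carrying HiBiT-tagged Target C, 10,000 per well, treated 24 h at 37 °C with 10-point threefold dilutions (top 10 μM final, ≤0.25% DMSO). Lytic HiBiT luminescence read; response normalised to unmodified K562 and DMSO controls, four-parameter fit interpolated at 50% for IC50.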
IC50 (Target C [1]) [µM],IC50 (MYB) [µM],IC50 (HTT) [µM],IC50 (Target C [2]) [µM],Structure (SMILES)
0.1 to 1,0.1 to 1,< 0.1,0.1 to 1,Cc1cn2nc(-c3ccc4c(=O)n(C5CCCNCC5)ncc4c3)cc(C)c2n1 (stereo not drawn) [Compound 283]
> 10,1 to 10,1 to 10,> 10,Cn1cc2cc(-c3cc(F)c4c(=O)n(C5CCNCC5)cnc4c3)cc(F)c2n1 [Compound 314]
0.1 to 1,0.1 to 1,0.1 to 1,0.1 to 1,Cc1cn2nc(-c3ccc4c(=O)n(C5CCN(C)CC5)cnc4c3F)cc(C)c2n1 [Compound 290]
0.1 to 1,< 0.1,< 0.1,< 0.1,Cc1cn2nc(-c3ccc4c(=O)n([C@H]5CCN(C)[C@H](C)C5)ncc4c3)cc(C)c2n1 [Compound 278]
1 to 10,1 to 10,1 to 10,1 to 10,Cc1cn2nc(-c3ccc4c(=O)n(C5CCN(C)C5)ncc4c3)cc(C)c2n1 (stereo not drawn) [Compound 271]
0.1 to 1,0.1 to 1,< 0.1,< 0.1,Cc1cn2nc(-c3ccc4c(=O)n(C5CCNC(C)(C)C5)ncc4c3)cc(C)c2n1 (stereo not drawn) [Compound 279]
1 to 10,0.1 to 1,1 to 10,1 to 10,Cc1cn2cc(-c3cc(F)c4c(=O)n([C@H]5CCNC[C@H]5F)cnc4c3)cc(F)c2n1 [Compound 338]
0.1 to 1,< 0.1,0.1 to 1,0.1 to 1,"Cc1cn2cc(-c3cc(F)c4c(=O)n([C@H]5CCN[C@H](C)C5)cnc4c3)cc(F)c2n1 [Compound 346, trans-5-fluoro-7-(8-fluoro-2-methylimidazo[1,2-a]pyridin-6-yl)-3-(2-methylpiperidin-4-yl)quina-zolin-4(3H)-one]"
> 10,1 to 10,> 10,> 10,"Cc1cn2nc(-c3cc(O)c4c(=O)n(C5CCNC5)cnc4c3)cc(C)c2n1 (stereo not drawn) [Compound 362, 7-{2,8-dimethylimidazo[1,2-b]pyridazin-6-yl}-5-hydroxy-3-(pyrrolidin-3-yl)quinazolin-4-one]"
> 10,> 10,> 10,> 10,"Cc1cn2cc(-c3cc(F)c4c(=O)n(C5CNCCC5=O)cnc4c3)cc(F)c2n1 (stereo not drawn) [Compound 352, 5-fluoro-7-{8-fluoro-2-methylimidazo[1,2-a]pyridin-6-yl}-3-(4-oxopiperidin-3-yl)quinazolin-4-one]"
0.1 to 1,< 0.1,< 0.1,< 0.1,Cc1cn2nc(-c3cc(F)c4c(=O)n([C@@H]5CCNC6(CC6)C5)cnc4c3)cc(C)c2n1 [Compound 356]
1 to 10,0.1 to 1,0.1 to 1,1 to 10,Cc1cn2nc(-c3ccc4c(=O)n(C5CCNCC5)cnc4c3)cc2c(C)n1 [Compound 298]
1 to 10,0.1 to 1,0.1 to 1,0.1 to 1,CC[C@@H]1C[C@H](n2ncc3cc(-c4cc(C)c5nc(C)cn5n4)ccc3c2=O)CCN1 [Compound 304]
0.1 to 1,< 0.1,< 0.1,< 0.1,"Cc1cc(-c2cc(F)c3c(=O)n(C4CCNC5(CC5)C4)cnc3c2)nc2cn(C)nc12 (stereo not drawn) [Compound 361, 3-{4-azaspiro[2.5]octan-7-yl}-7-{2,7-dimethylpyrazolo[4,3-b]pyridin-5-yl}-5-fluoroquinazolin-4-one]"
1 to 10,1 to 10,1 to 10,1 to 10,"Cc1ncc(-c2ccc3c(=O)n(C4CCNCC4)cnc3c2)cn1 [Compound 354, 7-(2-methylpyrimidin-5-yl)-3-(piperidin-4-yl)quinazolin-4(3H)-one]"
1 to 10,1 to 10,1 to 10,1 to 10,Cc1cn2cc(-c3ccc4c(=O)n(C5CCN(C)CC5)cnc4c3)ncc2n1 [Compound 308]
0.1 to 1,< 0.1,0.1 to 1,0.1 to 1,"Cc1cn2cc(-c3cc(F)c4c(=O)n([C@H]5CCN[C@@H](C)C5)cnc4c3)cc(F)c2n1 (relative stereo) [Compound 343, cis-5-fluoro-7-(8-fluoro-2-methylimidazo[1,2-a]pyridin-6-yl)-3-(2-methylpiperidin-4-yl)quinazolin-4(3H)-one]"
0.1 to 1,0.1 to 1,0.1 to 1,0.1 to 1,Cc1cn2cc(-c3ccc4c(=O)n(C5CCNCC5)cnc4c3)cc(Cl)c2n1 [Compound 291]
> 10,1 to 10,> 10,> 10,O=c1c2ccc(-c3cn[nH]c3)cc2ncn1C1CCNCC1 [Compound 284]
> 10,> 10,> 10,> 10,COc1cc(-c2cc(F)c3c(=O)n(C4CCNCC4)cnc3c2)cnn1 [Compound 320]

IC50 (Target C [1]) [µM],IC50 (MYB) [µM],IC50 (HTT) [µM],IC50 (Target C [2]) [µM],Structure (SMILES)
> 10,> 10,> 10,> 10,CN1CCC(n2cnc3cc(-c4cn[nH]c4)ccc3c2=O)CC1 [Compound 299]
1 to 10,0.1 to 1,1 to 10,1 to 10,Cc1cn2nc(-c3ccc4c(c3)CCN([C@@H]3CCN[C@H](C)C3)C4=O)cc(C)c2n1 [Compound 281]
< 0.1,< 0.1,< 0.1,< 0.1,Cc1cn2nc(-c3cc(F)c4c(=O)n(C5CCNC6(CC6)C5)cnc4c3)cc(C)c2n1 (stereo not drawn) [Compound 351]
0.1 to 1,0.1 to 1,0.1 to 1,0.1 to 1,Cc1cn2cc(-c3ccc4c(=O)n([C@H]5CCN[C@H](C)C5)cnc4c3)cc(F)c2n1 [Compound 296]
< 0.1,< 0.1,< 0.1,< 0.1,Cc1cn2nc(-c3ccc4c(=O)n(C5CCNC6(CC6)C5)ncc4c3)cc(C)c2n1 (stereo not drawn) [Compound 274]
1 to 10,1 to 10,1 to 10,1 to 10,Cc1nc2c(F)cc(-c3ccc4c(=O)n(C5CCN(C)CC5)cnc4c3)cc2s1 [Compound 301]
> 10,0.1 to 1,1 to 10,> 10,Cc1cn2nc(-c3ccc4c(c3)CCN(C3CCN(C)CC3)C4=O)cc(C)c2n1 [Compound 268]
1 to 10,0.1 to 1,0.1 to 1,1 to 10,Cc1nc2c(F)cc(-c3ccc4c(=O)n(C5CCN(C)CC5)cnc4c3)cc2o1 [Compound 300]
0.1 to 1,< 0.1,0.1 to 1,0.1 to 1,Cn1cc2cc(-c3cc(F)c4c(=O)n(C5CCNCC5)cnc4c3)cc(C#N)c2n1 [Compound 316]
1 to 10,0.1 to 1,1 to 10,1 to 10,Cc1cn2cc(-c3cc(F)c4c(=O)n(C5CCNCC5)cnc4c3)nc2c(C)n1 [Compound 319]
1 to 10,1 to 10,0.1 to 1,1 to 10,Cc1cn2cc(-c3ccc4c(=O)n(C5CCNCC5)cnc4c3)cc(C(F)(F)F)c2n1 [Compound 306]
< 0.1,< 0.1,< 0.1,< 0.1,Cc1cn2nc(-c3cc(F)c4c(=O)n(C5CCNC6(CC6)C5)ncc4c3)cc(C)c2n1 (stereo not drawn) [Compound 312]
1 to 10,0.1 to 1,0.1 to 1,1 to 10,Cc1cn2nc(-c3ccc4c(c3)CCN(C3CCNC(C)(C)C3)C4=O)cc(C)c2n1 (stereo not drawn) [Compound 267]
0.1 to 1,< 0.1,< 0.1,< 0.1,Cc1cn2nc(-c3cc(C)c4c(=O)n(C5CCNCC5)cnc4c3)cc(C)c2n1 [Compound 355]
1 to 10,1 to 10,1 to 10,1 to 10,Cc1cn2nc(-c3ccc4c(=O)n(C5CCN(C)CC5)cnc4c3)cc2c(C)n1 [Compound 303]
> 10,1 to 10,1 to 10,1 to 10,Cc1cn2cc(-c3ccc4c(=O)n([C@@H]5CCN[C@H](C)C5)cnc4c3)cc(F)c2n1 [Compound 295]
> 10,0.1 to 1,0.1 to 1,1 to 10,"CNc1cc(-c2cc(C)c3nc(C)cn3n2)cc2ncn(C3CCNCC3)c(=O)c12 [Compound 359, 7-{2,8-dimethylimidazo[1,2-b]pyridazin-6-yl}-5-(methylamino)-3-(piperidin-4-yl)quinazolin-4-one]"
1 to 10,0.1 to 1,0.1 to 1,0.1 to 1,Cc1cn2nc(-c3ccc4c(=O)n([C@@H]5CCN(C)[C@H](C)C5)ncc4c3)cc(C)c2n1 [Compound 277]
1 to 10,0.1 to 1,1 to 10,1 to 10,Cn1cc2cc(-c3cc(F)c4c(=O)n(C5CCNCC5)cnc4c3)c(F)cc2n1 [Compound 315]
